Laboratory results: patent publication US6197760A (priority 2000, dated 2001)
“Also recorded” adds a separate entry of the source. Like-named read-outs stand apart in the source and are kept apart here.

Experiments:
HeLa cells = conditions: in vitro; cited from earlier work
[1] = test system: MCF-7 mammary tumor xenograft; set-up: species or system human; conditions: in vivo; for Days delay (T-C): sc
LOX-IMVI melanoma = assay: Evaluation against i.p. implanted LOX-IMVI melanoma (Table 6); type: in vivo, human; conditions: for 55-Day Surv./Total / % ILS / Median Day of Death: IP, Q1DX1 (1); for increase in life span (ILS) / survivors: Table 6
Method: BM-IPM was evaluated vs. human LOX-IMVI melanoma and produced a 52% increase in life span (ILS) and 20% survivors, while IPM yielded an identical ILS with no survivors.
Evaluation of BM-IPM Against I.P. Implanted Human
Treatment: IP: Q1DX1 (1) Therapeutic Response

P388 leukemia [2] = test system: P388 leukemia; set-up: species or system murine; conditions: mouse, in vivo; for 45-Day Surv/Total / % ILS / Approx. Net Log10 Change In Tumor Burden at End of Rx / Median Day of Death: ip, 100 mg/kg
[3] = test system: MX-1 mammary tumor xenograft; type: in vivo, human
mammary tumor 16/C = test system: mammary tumor 16/C; set-up: species or system murine; conditions: mouse, in vivo
M5076 sarcoma [4] = assay: Response of s.c. implanted M5076 sarcoma (Table 4); type: in vivo, murine; conditions: for days T-C: Table 4, dose not given
Method: Response of S.C. Implanted M5076 Sarcoma to Treatment with
The compounds were injected i.p. daily on days 11-15.

[5] = test system: experimental leukemias and solid tumors; set-up: species or system mice and rats; conditions: in vivo
M5076 sarcoma [6] = conditions: cited from earlier work
L1210/CPA leukemia = type: in vivo, male CDF1 mice
[7] = clinical; cited from earlier work
in vivo [8] = conditions: mouse, ip
Lewis lung carcinoma = conditions: mouse, in vivo; for % ILS (increase in life span, excluding survivors) / Log kill total (Log10 cell kill) / Tumour-free survivors: ip
P388 leukemia [9] = conditions: cited from earlier work
in vivo [10] = conditions: mouse, ip; remark: listed apart in the source
[11] = patients treated with Ifos; cited from earlier work
[12] = metabolite of CPA; cited from earlier work
[13] = test system: mixedfunction oxidase activities (cytochrome P-450, aryl hydrocarbon hydroxylase, aminopyrinedemethylase); glutathione; conditions: cited from earlier work
[14] = 18 mg/kg i.p. daily on days 11-15
[15] = 27 mg/kg i.p. daily on days 11-15
[16] = 40 mg/kg i.p. daily on days 11-15
[17] = L1210/CPA, i.p. day 2 only at MTD (CPA 200, Ifos 431, IPM 100 mg/kg)
[18] = L1210/CPA, i.p. day 2 only at MTD (CPA 200, Ifos 431, IPM 100 mg/kg), tumor burden at start 6.0 × 10^7 cells
[19] = L1210/0, i.p. day 2 only at MTD (CPA 200, Ifos 431, IPM 100 mg/kg)
[20] = L1210/0, i.p. day 2 only at MTD (CPA 200, Ifos 431, IPM 100 mg/kg), tumor burden at start 8.5 × 10^8 cells
[21] = MTD Dosage (highest non-toxic dose, LD10 or less)

## O=P(O)(NCCBr)NCCBr [BB-IPM]
HeLa cells
  cytotoxicity to HeLa cells: cytotoxic to HeLa cells in vitro
[1]
  Days delay (T-C): 1.7

## O=P(O)(NCCCl)NCCBr [BC-IPM]
HeLa cells
  cytotoxicity to HeLa cells: cytotoxic to HeLa cells in vitro
[1]
  Days delay (T-C): 5.8

## CS(=O)(=O)OCCNP(=O)(O)NCCBr [BM-IPM]
LOX-IMVI melanoma
  comparative activity vs. LOX melanoma: comparably active to IPM but less active than CPA
  increase in life span (ILS): 52%
  survivors: 20%
LOX-IMVI melanoma; 15 mg/kg/dose
  55-Day Surv./Total: 0/5
  % ILS: +26%
  Median Day of Death: 24.0 days
LOX-IMVI melanoma; 30 mg/kg/dose
  55-Day Surv./Total: 1/5
  % ILS: +52%
  Median Day of Death: 29.0 days
P388 leukemia [2]
  log cell kill: 5.5 log
  45-Day Surv/Total: 0/5
  % ILS: +73
  Approx. Net Log10 Change In Tumor Burden at End of Rx: -5.5
  Median Day of Death: 19.0
[3]; experiment analogous to MCF-7
  activity vs. MX-1: good activity; also recorded: more active but less so than CPA and Ifos
Mammary tumor 16/C
  tumor response / comparative activity vs. 16/C: superior to the clinical drugs CPA and Ifos and to MM-IPM
M5076 sarcoma [4]; [14]
  Days delay (T-C): 0.8 days
  Days to 2 Doublings: 10.1 days
  Tumor-free Surv/Total: 0/6
M5076 sarcoma [4]; [15]
  Days delay (T-C): 7.2 days
  Days to 2 Doublings: 16.5 days
  Tumor-free Surv/Total: 0/6
M5076 sarcoma [4]; [16]
  Days to 2 Doublings: Toxic
  Tumor-free Surv/Total: 0/6
M5076 sarcoma [4]
  days T-C: 7.2 days
[1]
  Days delay (T-C): 4.7

## CS(=O)(=O)OCCCNP(=O)(O)NCCCl [CM3-IPM]
P388 leukemia [2]
  45-Day Surv/Total: 0/5
  % ILS: +9
  Approx. Net Log10 Change In Tumor Burden at End of Rx: -0.7
  Median Day of Death: 12.0

## CS(=O)(=O)OCCNP(=O)(O)NCCCl [CM-IPM]
P388 leukemia [2]
  log cell kill: 6.1 log
  45-Day Surv/Total: 0/5
  % ILS: +82
  Approx. Net Log10 Change In Tumor Burden at End of Rx: -6.1
  Median Day of Death: 20.0
[5]
  comparative activity vs. three experimental leukemias and solid tumors: superior to IPM and other IPM analogs, including MM-IPM, vs. all three tumors
[3]; experiment analogous to MCF-7
  activity vs. MX-1: only modest activity; also recorded: modestly active relative to CPA and Ifos
Mammary tumor 16/C
  tumor response / comparative activity vs. 16/C: superior to the clinical drugs CPA and Ifos and to MM-IPM; also recorded: comparable to BM-IPM vs. 16/C mammary tumor, and superior to CPA and Ifos vs. 16/C tumor
M5076 sarcoma [4]; [14]
  Days delay (T-C): 2.3 days
  Days to 2 Doublings: 11.6 days
  Tumor-free Surv/Total: 0/6
M5076 sarcoma [4]; [15]
  Days delay (T-C): 12.2 days
  Days to 2 Doublings: 21.5 days
  Tumor-free Surv/Total: 0/6
M5076 sarcoma [4]; [16]
  Days delay (T-C): 23.2 days
  Days to 2 Doublings: 32.5 days
  Tumor-free Surv/Total: 0/6
M5076 sarcoma [4]
  days T-C: 23.2 days
[1]
  comparative activity vs. MCF-7: equal in activity to Ifos, slightly superior to IPM and melphalan (the positive control) and significantly superior to CPA and all of the other analogs; also recorded: superior to MM-IPM, BC-IPM and CPA, slightly more active than IPM, and equally active to Ifos
  Days delay (T-C): > 39.7

## O=P1(N(CCCl)CCCl)NCCCO1 (stereo not shown) [CPA, cyclophosphamide]
M5076 sarcoma [6]; historical
  comparative activity vs. M5076 sarcoma, historically: comparably active to CM-IPM
LOX-IMVI melanoma; 40 mg/kg/dose
  55-Day Surv./Total: 0/5
  % ILS: +121%
  Median Day of Death: 42.0 days
LOX-IMVI melanoma
  increase in life span (ILS): 121%
  survivors: no survivors
L1210/CPA leukemia; [17]
  % ILS (dying mice only): +57%
  Net log10 reduction in tumor burden after therapy: 4 log10
L1210/CPA leukemia; [18]
  Day 60 survivors/total: 0/10
L1210/0 leukemia; [19]
  % ILS (dying mice only): +107%
  Net log10 reduction in tumor burden after therapy: 7 log10
L1210/0 leukemia; [20]
  Day 60 survivors/total: 0/10
[7]
  toxicity in patients: hemorrhagic cystitis
In vivo [8]
  MTD: 200 mg/kg
Lewis lung carcinoma
  comparative activity against Lewis lung carcinoma: equivalent activity at equal host toxicity
  cure rate: 50-70%
  % ILS (increase in life span, excluding survivors): 68
  Log kill total (Log10 cell kill): > 6.8
  Tumour-free survivors: 5/10
P388 leukemia [9]; historical
  comparative activity vs. P388 leukemia, historically: comparably active to CM-IPM
[3]; experiment analogous to MCF-7
  activity vs. MX-1: high activity
Mammary tumor 16/C
  tumor response / comparative activity vs. 16/C: none of which caused tumor regression
In vivo [10]
  MTD: 200 mg/kg
[1]
  Days delay (T-C): 6.7

## CS(=O)(=O)OCCNP(=O)(O)NCCF [FM-IPM]
P388 leukemia [2]
  45-Day Surv/Total: 0/5
  % ILS: +10
  Approx. Net Log10 Change In Tumor Burden at End of Rx: -1.4
  Median Day of Death: 13.0

## O=P(O)(NCCCl)NCCCl [IPM, isophosphoramide mustard]
[11]
  metabolite of Ifos in patients: major metabolite
LOX-IMVI melanoma; 40 mg/kg/dose
  55-Day Surv./Total: 0/5
  % ILS: +52%
  Median Day of Death: 29.0 days
LOX-IMVI melanoma
  increase in life span (ILS): identical ILS
  survivors: no survivors
L1210/CPA leukemia; [17]
  % ILS (dying mice only): +114%
  Net log10 reduction in tumor burden after therapy: 7 log10
L1210/CPA leukemia; [18]
  Day 60 survivors/total: 1/10
L1210/0 leukemia; [19]
  % ILS (dying mice only): +128%
  Net log10 reduction in tumor burden after therapy: 8 log10
L1210/0 leukemia; [20]
  Day 60 survivors/total: 0/10
P388 leukemia [2]
  log cell kill: 4.8 log
  45-Day Surv/Total: 1/5
  % ILS: +64
  Approx. Net Log10 Change In Tumor Burden at End of Rx: -4.8
  Median Day of Death: 18.0
In vivo [8]
  MTD: 100 mg/kg
Lewis lung carcinoma
  comparative activity against Lewis lung carcinoma: equivalent activity at equal host toxicity
  cure rate: 50-70%
  % ILS (increase in life span, excluding survivors): 34
  Log kill total (Log10 cell kill): > 2.1
  Tumour-free survivors: 6/10
[5]
  comparative therapeutic efficacy against experimental leukemias and solid tumors: generally comparable to that of CPA and Ifos
[3]; experiment analogous to MCF-7
  activity vs. MX-1: good activity; also recorded: more active but less so than CPA and Ifos
Mammary tumor 16/C
  tumor response / comparative activity vs. 16/C: limited regression
M5076 sarcoma [4]; [14]
  Days delay (T-C): 1.0 days
  Days to 2 Doublings: 10.3 days
  Tumor-free Surv/Total: 0/6
M5076 sarcoma [4]; [15]
  Days delay (T-C): 3.3 days
  Days to 2 Doublings: 12.6 days
  Tumor-free Surv/Total: 0/6
M5076 sarcoma [4]; [16]
  Days delay (T-C): 6.1 days
  Days to 2 Doublings: 15.4 days
  Tumor-free Surv/Total: 0/6
M5076 sarcoma [4]
  days T-C: 6.1 days
In vivo [10]; [21]
  MTD: 100 mg/kg
[1]
  Days delay (T-C): 33.9

## O=P1(NCCCl)OCCCN1CCCl (stereo not shown) [Ifos, ifosfamide]
M5076 sarcoma [6]; mouse, in vivo
  comparative activity vs. M5076 sarcoma, historically: comparably active to CM-IPM
L1210/CPA leukemia; mouse, in vivo
  % ILS (dying mice only): +85
  Day 60 survivors/total: 0/10
  Net log10 reduction in tumor burden after therapy: 5
L1210/CPA leukemia; mouse, in vivo, ip, 289 mg/kg
  % ILS (dying mice only): +57
  Day 60 survivors/total: 0/10
  Net log10 reduction in tumor burden after therapy: 4
L1210/0 leukemia; mouse, in vivo
  % ILS (dying mice only): +185
  Day 60 survivors/total: 0/10
  Net log10 reduction in tumor burden after therapy: 8
L1210/0 leukemia; mouse, in vivo, ip
  MTD Dosage (highest non-toxic dose, LD10 or less): 289 mg/kg
L1210/0 leukemia; mouse, in vivo, ip, 289 mg/kg
  % ILS (dying mice only): +114
  Day 60 survivors/total: 0/9
  Net log10 reduction in tumor burden after therapy: 8
In vivo [8]
  MTD: 300 mg/kg
Lewis lung carcinoma
  comparative activity against Lewis lung carcinoma: equivalent activity at equal host toxicity
  cure rate: 50-70%
  % ILS (increase in life span, excluding survivors): 55
  Log kill total (Log10 cell kill): > 4.5
  Tumour-free survivors: 7/10
P388 leukemia [9]; mouse, in vivo
  comparative activity vs. P388 leukemia, historically: comparably active to CM-IPM
[3]; in vivo
  activity vs. MX-1: high activity
Mammary tumor 16/C
  tumor response / comparative activity vs. 16/C: none of which caused tumor regression
In vivo [10]; [21]
  MTD: 431 mg/kg
[1]
  Days delay (T-C): > 39.7

## N[C@@H](Cc1ccc(N(CCCl)CCCl)cc1)C(=O)O [Melphalan]
[1]
  Days delay (T-C): 28.1

## C=CC=O [acrolein]
[12]
  teratogenicity: teratogenic
[13]
  liver toxicity: glutathione depletion and destruction of mixedfunction oxidase activities
